Experimental data from patent US7625948B2, “Ester compound and medicinal use thereof” (Japan Tobacco Inc., priority 2002, dated 2009).

System: HepG2 cells
Assay: Test Example 2: inhibition of apolipoprotein B secretion from HepG2 cells, ELISA (also used for metabolites in Test Example 8)
Format: cell-based
Details: Homo sapiens, 24 hours, apo B in supernatant by ELISA, read-out: Test Example 2 Inhibition of apo B secretion IC50
Method in brief: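 HepG2 cells cultured 24 h, then exposed 24 h to compounds or metabolites in medium with 0.5% DMSO. Secreted apo B in supernatant quantified by sandwich ELISA (HRP, ABTS, 405 nm) against purified human apo B standard; % inhibition vs DMSO group, IC50 derived.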

IC50 [nM]	Structure (SMILES)
44	CCOC(=O)C(CC)(COC(=O)Cc1ccc(NC(=O)c2ccccc2-c2ccc(C(F)(F)F)cc2)c(C(=O)N(C)C)c1)C(=O)OCC [Example 2-115]
38	C=CCC(COC(=O)Cc1ccc(NC(=O)c2ccccc2-c2ccc(C(F)(F)F)cc2)c(C(=O)N(C)C)c1)(C(=O)OCC)C(=O)OCC [Example 2-117]
49	CCOC(=O)C(COC(=O)Cc1ccc(NC(=O)c2ccccc2-c2ccc(C(F)(F)F)cc2)c(C(=O)N(C)C)c1)(C(=O)OCC)C(=O)OCC [Example 2-118]
4.2	CCNC(=O)C(COC(=O)Cc1ccc(NC(=O)c2ccccc2-c2ccc(C(F)(F)F)cc2)c(O)c1)(C(=O)NCC)c1ccccc1 [Example 3-2, {3-Hydroxy-4-[(4′-trifluoromethylbiphenyl-2-carbonyl)amino]phenyl}acetic acid 2,2-bisethylcarbamoyl-2-phenylethyl ester]
1.6	CCOC(=O)C(COC(=O)Cc1ccc(NC(=O)c2ccccc2-c2ccc(C(F)(F)F)cc2)c(OC(C)C)c1)(C(=O)OCC)c1ccccc1 [Example 3-9]
0.72	CCCOc1cc(CC(=O)OCC(C(=O)NCC)(C(=O)NCC)c2ccccc2)ccc1NC(=O)c1ccccc1-c1ccc(C(F)(F)F)cc1 [Example 3-12]
1.9	CCNC(=O)C(COC(=O)Cc1ccc(NC(=O)c2ccccc2-c2ccc(C(F)(F)F)cc2)c(OCc2ccccc2)c1)(C(=O)NCC)c1ccccc1 [Example 3-13]
49.9	CCOC(=O)C(COC(=O)Cc1ccc(NC(=O)c2ccccc2-c2ccc(C(F)(F)F)cc2)c(O)c1)(C(=O)OCC)c1ccccc1 [Example 3-15]
0.33	CCNC(=O)C(COC(=O)Cc1ccc(NC(=O)c2ccccc2-c2ccc(C(F)(F)F)cc2)c(N(C)C)c1)(C(=O)NCC)c1ccccc1 [Example 4, 2-{3-Dimethylamino-4-[(4′-trifluoromethylbiphenyl-2-carbonyl)amino]phenyl}acetic acid 2,2-bisethylcarbamoyl-2-phenylethyl ester]
16	CCNC(=O)C(COC(=O)Cc1ccc(NC(=O)c2ccccc2-c2ccc(C(F)(F)F)cc2)c(N2CCCCC2)c1)(C(=O)NCC)c1ccccc1 [Example 4-2]
7.9	CCNC(=O)C(COC(=O)Cc1ccc(NC(=O)c2ccccc2-c2ccc(C(F)(F)F)cc2)c(N2CCCC2)c1)(C(=O)NCC)c1ccccc1 [Example 4-3]
5.2	CCOC(=O)C(COC(=O)Cc1ccc(NC(=O)c2ccccc2-c2ccc(C(F)(F)F)cc2)c(N2CCCC2)c1)(C(=O)OCC)c1ccccc1 [Example 4-5]
7.5	CCOC(=O)C(COC(=O)Cc1ccc(NC(=O)c2ccccc2-c2ccc(C(F)(F)F)cc2)c(N(C)C)c1)(C(=O)OCC)c1ccccc1 [Example 4-6]
15	CCOC(=O)C(COC(=O)Cc1ccc(NC(=O)c2ccccc2-c2ccc(C(F)(F)F)cc2)c(N2CCOCC2)c1)(C(=O)OCC)c1ccccc1 [Example 4-7]
10	CCOC(=O)C(COC(=O)Cc1ccc(NC(=O)c2ccccc2-c2ccc(C(F)(F)F)cc2)c(N(CC)CC)c1)(C(=O)OCC)c1ccccc1 [Example 4-8]
1.3	CCNC(=O)C(CCOC(=O)Cc1cccc(NC(=O)c2ccccc2-c2ccc(C(F)(F)F)cc2)c1OC)(C(=O)NCC)c1ccccc1 [Example 5-12]

IC50 [nM]	Structure (SMILES)
2.4	CCOC(=O)C(CCOC(=O)Cc1cccc(NC(=O)c2ccccc2-c2ccc(C(F)(F)F)cc2)c1OC)(C(=O)OCC)c1ccccc1 [Example 5-13]
0.34	CCNC(=O)C(CCOC(=O)Cc1cccc(NC(=O)c2ccccc2-c2ccc(C(F)(F)F)cc2)c1OCC)(C(=O)NCC)c1ccccc1 [Example 5-14]
6.4	CCOC(=O)C(CCOC(=O)Cc1cccc(NC(=O)c2ccccc2-c2ccc(C(F)(F)F)cc2)c1OCC)(C(=O)OCC)c1ccccc1 [Example 5-15]
3	CCOC(=O)C(CCOC(=O)Cc1cccc(NC(=O)c2ccccc2-c2ccc(C(F)(F)F)cc2)c1OC(C)C)(C(=O)OCC)c1ccccc1 [Example 5-16]
5.2	CCOC(=O)C(CCOC(=O)Cc1cccc(NC(=O)c2ccccc2-c2ccc(C(F)(F)F)cc2)c1C(=O)OC)(C(=O)OCC)c1ccccc1 [Example 5-17]
59	CCNC(=O)C(COC(=O)Cc1ccc2c(c1)oc(=O)n2C(=O)c1ccccc1-c1ccc(C(F)(F)F)cc1)(C(=O)NCC)c1ccccc1 [Example 9-3, [2-Oxo-3-(4′-trifluoromethylbiphenyl-2-carbonyl)-2,3-dihydrobenzoxazol-6-yl]acetic acid 2,2-bisethylcarbamoyl-2-phenylethyl ester]
3.1	CCOC(=O)C(COC(=O)CCc1ccc(NC(=O)c2ccccc2-c2ccc(C(F)(F)F)cc2)c(C(=O)N(C)C)c1)(C(=O)OCC)c1ccccc1 [Example 9-5, 2-(3-{3-Dimethylcarbamoyl-4-[(4′-trifluoromethylbiphenyl-2-carbonyl)-amino]-phenyl}-propionyloxymethyl)-2-phenyl-malonic acid diethyl ester]
59	CCNC(=O)C(COC(=O)c1ccc(CNC(=O)c2ccccc2-c2ccc(C(F)(F)F)cc2)cc1)(C(=O)NCC)c1ccccc1 [Example 9-6]
6.9	CCNC(=O)C(COC(=O)Cc1ccc(NC(=O)c2ccccc2-c2ccc(C(F)(F)F)cc2)c(C(=O)OCc2ccccc2)c1)(C(=O)NCC)c1ccccc1 [Example 9-8]
41	CCOC(=O)C(COC(=O)Cc1ccc(NC(=O)c2ccccc2-c2ccc(C(F)(F)F)cc2)c(C(=O)OCc2ccccc2)c1)(C(=O)OCC)c1ccccc1 [Example 9-14]
23	CCOC(=O)C(COC(=O)Cc1ccc2c(c1)C(=O)N2C(=O)c1ccccc1-c1ccc(C(F)(F)F)cc1)(C(=O)OCC)c1ccccc1 [Example 9-17]
20	CCOC(=O)C(COC(=O)Cc1ccc(NC(=O)c2ccccc2-c2ccc(C(F)(F)F)cc2)c(NC(C)=O)c1)(C(=O)OCC)c1ccccc1 [Example 9-21]
0.96	CCOC(=O)C(COC(=O)Cc1ccc(NC(=O)c2ccccc2-c2ccc(C(F)(F)F)cc2)c(NC(=O)OC)c1)(C(=O)OCC)c1ccccc1 [Example 9-22]
8.77	CCOC(=O)C(COC(=O)Cc1ccc(NC(=O)c2ccccc2-c2ccc(C(F)(F)F)cc2)c(-c2nc(C)cs2)c1)(C(=O)OCC)c1ccccc1 [Example 9-23]
7.86	CCOC(=O)C(COC(=O)Cc1ccc(NC(=O)c2ccccc2-c2ccc(C(F)(F)F)cc2)c(-c2ccccc2)c1)(C(=O)OCC)c1ccccc1 [Example 9-24]
0.82	CCOC(=O)C(COC(=O)Cc1ccc(NC(=O)c2ccccc2-c2ccc(C(F)(F)F)cc2)c(C(=O)N(C)OC)c1)(C(=O)OCC)c1ccccc1 [Example 9-27]

Structure (SMILES)	IC50 [nM]
CCOC(=O)C(COC(=O)Cc1ccc(NC(=O)c2ccccc2-c2ccc(C(F)(F)F)cc2)c(OCC)c1)(C(=O)OCC)c1ccccc1 [Example 3, 2-(2-{3-Ethoxy-4-[(4′-trifluoromethylbiphenyl-2-carbonyl)amino]phenyl}acetoxymethyl)-2-phenylmalonic acid diethyl ester]	1.9
CCOC(=O)c1cc(CC(=O)OCC(C(=O)OCC)(C(=O)OCC)c2ccccc2)ccc1NC(=O)c1ccccc1-c1ccc(C(F)(F)F)cc1 [Example 9-4, 2-(2-{3-Ethoxycarbonyl-4-[(4′-trifluoromethylbiphenyl-2-carbonyl)amino]phenyl}acetoxymethyl)-2-phenylmalonic acid diethyl ester]	9.9
